The values that follow come from article PMC5380139 (FEBS letters, 2017).

What is called Ki is a measure of affinity in units of concentration, obtained from inhibition or displacement.

This assay deals with T1, LipL (Streptomyces sp., UniProt D4QF25).
T1 sequence (D4QF25 1-274): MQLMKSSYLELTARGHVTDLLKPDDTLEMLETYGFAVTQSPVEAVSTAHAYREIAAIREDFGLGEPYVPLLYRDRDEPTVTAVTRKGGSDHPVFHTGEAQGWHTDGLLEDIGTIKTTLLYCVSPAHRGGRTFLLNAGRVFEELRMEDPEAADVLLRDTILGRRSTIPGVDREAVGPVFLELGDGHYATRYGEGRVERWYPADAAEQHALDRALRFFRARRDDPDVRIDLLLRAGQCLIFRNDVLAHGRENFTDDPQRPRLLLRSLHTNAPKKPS
It is filed as biochemical.

Structures are written as SMILES.

The compound `O=c1ccn([C@@H]2O[C@H](CCP(=O)(O)O)[C@@H](O)[C@H]2O)c(=O)[nH]1` [UMcP, 5′-deoxyuridine-5′-methylphosphonate] displayed a Ki of 800 nM.
